Experimental data as given in the NIST ThermoML archive (doi:10.1021/acs.jced.6b00269).

Conditions: for viscosity / mass density: 101.33 kPa, Liquid; for viscosity: Cone and plate viscometry; for Normal melting temperature: Crystal, DTA; for mass density: Vibrating tube method; for Glass transition temperature: DSC

CCC=C[P+](CC)(CC)CC.O=[N+]([O-])c1cn[n-]c1 [(buten-1-yl)triethylphosphonium 4-nitropyrazolide]
Conditions	Normal melting temperature [°C]	viscosity [mPa·s]
–	39	–
298.15 K	–	134
303.15 K	–	102
308.15 K	–	79
313.15 K	–	63
318.15 K	–	52

CCCC[P+](CC)(CC)CC.Cc1ncc([N+](=O)[O-])[n-]1 [butyltriethylphosphonium 2-methyl-5-nitroimidazolide]
Conditions	Glass transition temperature [°C]	Normal melting temperature [°C]	mass density [kg/m3]	viscosity [mPa·s]
–	-71	17	–	–
278.15 K	–	–	–	2180
283.15 K	–	–	1074.4	1350
288.15 K	–	–	1071.3	858
293.15 K	–	–	1068.3	569
295.15 K	–	–	1067.1	–
298.15 K	–	–	1065.3	391
303.15 K	–	–	1062.3	277
308.15 K	–	–	1059.3	202
313.15 K	–	–	1056.5	150
318.15 K	–	–	1053.6	115
323.15 K	–	–	1050.7	90
328.15 K	–	–	1047.8	72
333.15 K	–	–	1044.9	58
338.15 K	–	–	1042.1	–
343.15 K	–	–	1039.2	–
348.15 K	–	–	1036.4	–
353.15 K	–	–	1033.5	–

CCCC[P+](CC)(CC)CC.O=[N+]([O-])c1cn[n-]c1 [butyltriethylphosphonium 4-nitropyrazolide]
Conditions	Normal melting temperature [°C]	mass density [kg/m3]	viscosity [mPa·s]
–	44	–	–
278.15 K	–	–	840
283.15 K	–	1087.9	551
288.15 K	–	1084.7	372
293.15 K	–	1081.5	261
295.15 K	–	1080.3	–
298.15 K	–	1078.4	189
303.15 K	–	1075.4	141
308.15 K	–	1072.4	108
313.15 K	–	1069.3	85
318.15 K	–	1066.3	67
323.15 K	–	1063.3	55
328.15 K	–	1060.3	–
333.15 K	–	1057.3	–
338.15 K	–	1054.3	–
343.15 K	–	1051.3	–
348.15 K	–	1048.4	–
353.15 K	–	1045.4	–

CC[P+](CC)(CC)C1CCCC1.O=[N+]([O-])c1cn[n-]c1 [cyclopentyltriethylphosphonium 4-nitropyrazolide]
Conditions	Normal melting temperature [°C]
–	51

CCCCCCCCCC[P+](CC)(CC)CC.O=[N+]([O-])c1cn[n-]c1 [decyltriethylphosphonium 4-nitropyrazolide]
Conditions	Glass transition temperature [°C]	Normal melting temperature [°C]	mass density [kg/m3]	viscosity [mPa·s]
–	-71	11	–	–
278.15 K	–	–	–	1620
283.15 K	–	–	1020	1030
288.15 K	–	–	1017	678
293.15 K	–	–	1013.9	461
295.15 K	–	–	1012.7	–
298.15 K	–	–	1010.9	325
303.15 K	–	–	1007.9	236
308.15 K	–	–	1004.9	175
313.15 K	–	–	1002	133
318.15 K	–	–	999.1	104
323.15 K	–	–	996.2	82
328.15 K	–	–	993.3	66
333.15 K	–	–	990.4	54
338.15 K	–	–	987.5	–
343.15 K	–	–	984.6	–
348.15 K	–	–	981.7	–
353.15 K	–	–	978.8	–

CCCCCCC[P+](CC)(CC)CC.O=[N+]([O-])c1cn[n-]c1 [triethylheptylphosphonium 4-nitropyrazolide]
Conditions	Glass transition temperature [°C]	Normal melting temperature [°C]	mass density [kg/m3]	viscosity [mPa·s]
–	-72	16	–	–
278.15 K	–	–	–	1000
283.15 K	–	–	1047.1	657
288.15 K	–	–	1044	443
293.15 K	–	–	1040.9	309
295.15 K	–	–	1039.7	–
298.15 K	–	–	1037.8	223
303.15 K	–	–	1034.8	165
308.15 K	–	–	1031.8	126
313.15 K	–	–	1028.8	97
318.15 K	–	–	1026	77
323.15 K	–	–	1023.1	62
328.15 K	–	–	1020.2	–
333.15 K	–	–	1017.3	–
338.15 K	–	–	1014.5	–
343.15 K	–	–	1011.6	–
348.15 K	–	–	1008.8	–
353.15 K	–	–	1006	–

CCCCCCCCC[P+](CC)(CC)CC.O=[N+]([O-])c1cn[n-]c1 [triethylnonylphosphonium 4-nitropyrazolide]
Conditions	Glass transition temperature [°C]	Normal melting temperature [°C]	mass density [kg/m3]	viscosity [mPa·s]
–	-72	16	–	–
278.15 K	–	–	–	1370
283.15 K	–	–	1031	888
288.15 K	–	–	1027.9	593
293.15 K	–	–	1024.9	409
295.15 K	–	–	1023.6	–
298.15 K	–	–	1021.8	291
303.15 K	–	–	1018.8	213
308.15 K	–	–	1015.8	160
313.15 K	–	–	1012.9	123
318.15 K	–	–	1009.9	96
323.15 K	–	–	1007	77
328.15 K	–	–	1004	63
333.15 K	–	–	1001.1	52
338.15 K	–	–	998.2	–
343.15 K	–	–	995.3	–
348.15 K	–	–	992.4	–
353.15 K	–	–	989.5	–

CCCCCCCC[P+](CC)(CC)CC.Cc1ncc([N+](=O)[O-])[n-]1 [triethyloctylphosphonium 2-methyl-5-nitroimidazolide]
Conditions	Glass transition temperature [°C]	mass density [kg/m3]	viscosity [mPa·s]
–	-67	–	–
278.15 K	–	–	3720
283.15 K	–	1037.8	2280
288.15 K	–	1034.6	1440
293.15 K	–	1031.5	940
295.15 K	–	1030.3	–
298.15 K	–	1028.6	637
303.15 K	–	1025.6	446
308.15 K	–	1022.7	321
313.15 K	–	1019.8	237
318.15 K	–	1016.9	179
323.15 K	–	1014.1	138
328.15 K	–	1011.2	109
333.15 K	–	1008.4	80
338.15 K	–	1005.6	–
343.15 K	–	1002.7	–
348.15 K	–	999.9	–
353.15 K	–	997.1	–

CCCCCCCC[P+](CC)(CC)CC.O=[N+]([O-])c1c[n-]cn1 [triethyloctylphosphonium 4-nitroimidazolide]
Conditions	Normal melting temperature [°C]	mass density [kg/m3]	viscosity [mPa·s]
–	-28	–	–
278.15 K	–	–	1220
283.15 K	–	1037.8	804
288.15 K	–	1034.8	547
293.15 K	–	1031.8	382
295.15 K	–	1030.6	–
298.15 K	–	1028.8	276
303.15 K	–	1025.8	204
308.15 K	–	1022.9	155
313.15 K	–	1020.1	120
318.15 K	–	1017.2	95
323.15 K	–	1014.3	76
328.15 K	–	1011.4	62
333.15 K	–	1008.5	52
338.15 K	–	1005.7	–
343.15 K	–	1002.8	–
348.15 K	–	1000	–
353.15 K	–	997.1	–

CCCCCCCC[P+](CC)(CC)CC.O=[N+]([O-])c1cn[n-]c1 [triethyloctylphosphonium 4-nitropyrazolide]
Conditions	Glass transition temperature [°C]	Normal melting temperature [°C]	mass density [kg/m3]	viscosity [mPa·s]
–	-72	5	–	–
278.15 K	–	–	–	1100
283.15 K	–	–	1040.1	716
288.15 K	–	–	1037	480
293.15 K	–	–	1033.9	333
295.15 K	–	–	1032.7	–
298.15 K	–	–	1030.9	238
303.15 K	–	–	1027.9	175
308.15 K	–	–	1024.9	133
313.15 K	–	–	1022	103
318.15 K	–	–	1019	81
323.15 K	–	–	1016.1	65
328.15 K	–	–	1013.2	53
333.15 K	–	–	1010.2	–
338.15 K	–	–	1007.3	–
343.15 K	–	–	1004.4	–
348.15 K	–	–	1001.5	–
353.15 K	–	–	998.6	–

CCCCCCCC[P+](CC)(CC)CC.O=S(=O)([N-]S(=O)(=O)C(F)(F)F)C(F)(F)F [triethyloctylphosphonium bis(trifluoromethylsulfonyl)imide]
Conditions	mass density [kg/m3]	viscosity [mPa·s]
278.15 K	–	379
283.15 K	1256.3	268
288.15 K	1252.2	194
293.15 K	1248.1	145
295.15 K	1246.6	–
298.15 K	1244.2	111
303.15 K	1240.2	87
308.15 K	1236.2	73
313.15 K	1232.2	57
318.15 K	1228.2	–
323.15 K	1224.2	–
328.15 K	1220.2	–
333.15 K	1216.3	–
338.15 K	1212.3	–
343.15 K	1208.4	–
348.15 K	1204.4	–
353.15 K	1200.5	–

CCCCCCCCCCCCCC[P+](CCCCCC)(CCCCCC)CCCCCC.Cc1ncc([N+](=O)[O-])[n-]1 [trihexyl(tetradecyl)phosphonium 2-methyl-5-nitroimidazolide]
Conditions	Glass transition temperature [°C]	mass density [kg/m3]	viscosity [mPa·s]
–	-79	–	–
278.15 K	–	–	5890
283.15 K	–	948.1	3730
288.15 K	–	945.1	2420
293.15 K	–	941.9	1620
295.15 K	–	940.6	–
298.15 K	–	938.7	1110
303.15 K	–	935.7	786
308.15 K	–	932.8	569
313.15 K	–	929.8	420
318.15 K	–	926.9	317
323.15 K	–	924	244
328.15 K	–	921.1	192
333.15 K	–	918.2	153
338.15 K	–	915.3	125
343.15 K	–	912.5	–
348.15 K	–	909.6	–
353.15 K	–	906.8	–

CCCCCCCCCCCCCC[P+](CCCCCC)(CCCCCC)CCCCCC.Clc1nc[n-]c1Cl [trihexyl(tetradecyl)phosphonium 4,5-dichloroimidazolide]
Conditions	Glass transition temperature [°C]	mass density [kg/m3]	viscosity [mPa·s]
–	-64	–	–
278.15 K	–	–	4040
283.15 K	–	974.1	2580
288.15 K	–	970.8	1680
293.15 K	–	967.5	1140
295.15 K	–	966.2	–
298.15 K	–	964.4	789
303.15 K	–	961.3	566
308.15 K	–	958.3	415
313.15 K	–	955.2	308
318.15 K	–	952.2	234
323.15 K	–	949.1	182
328.15 K	–	946.2	144
333.15 K	–	943.2	116
338.15 K	–	940.2	–
343.15 K	–	937.2	–
348.15 K	–	934.2	–
353.15 K	–	931.3	–

CCCCCCCCCCCCCC[P+](CCCCCC)(CCCCCC)CCCCCC.N#Cc1nc[n-]c1C#N [trihexyl(tetradecyl)phosphonium 4,5-dicyanoimidazolide]
Conditions	Glass transition temperature [°C]	mass density [kg/m3]	viscosity [mPa·s]
–	-78	–	–
278.15 K	–	–	2490
283.15 K	–	928.9	1630
288.15 K	–	925.7	1090
293.15 K	–	922.6	754
295.15 K	–	921.5	–
298.15 K	–	919.7	535
303.15 K	–	916.8	391
308.15 K	–	913.9	291
313.15 K	–	911	220
318.15 K	–	908.1	171
323.15 K	–	905.2	135
328.15 K	–	902.4	108
333.15 K	–	899.6	88
338.15 K	–	896.7	73
343.15 K	–	893.9	–
348.15 K	–	891	–
353.15 K	–	888.2	–

CCCCCCCCCCCCCC[P+](CCCCCC)(CCCCCC)CCCCCC.O=[N+]([O-])c1c[n-]cn1 [trihexyl(tetradecyl)phosphonium 4-nitroimidazolide]
Conditions	Glass transition temperature [°C]	mass density [kg/m3]	viscosity [mPa·s]
–	-66	–	–
278.15 K	–	–	3380
283.15 K	–	949.4	2220
288.15 K	–	946.3	1500
293.15 K	–	943.1	1040
295.15 K	–	941.8	–
298.15 K	–	940.1	735
303.15 K	–	937.1	533
308.15 K	–	934.2	396
313.15 K	–	931.3	298
318.15 K	–	928.4	230
323.15 K	–	925.4	180
328.15 K	–	922.6	144
333.15 K	–	919.7	117
338.15 K	–	916.9	96
343.15 K	–	914	80
348.15 K	–	911.2	–
353.15 K	–	908.3	–
